In PubChem BioAssay (NCI):
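Cultured in 96-well plates, cells were exposed to test compound for 48 hours across five concentrations. GI50 is the concentration that inhibits growth by half. Definition used: TGI = concentration required for complete inhibition of growth.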

How the values were obtained:
Experiment in all cases: inhibition of tumour cell growth, NCI panel, 48 h
786-0 renal = tested on: 786-0 renal
A498 renal = tested on: A498 renal
A549 NSCLC = tested on: A549 NSCLC
ACHN renal = tested on: ACHN renal
BT-549 breast = tested on: BT-549 breast
CAKI-1 renal = tested on: CAKI-1 renal
CCRF-CEM leukemia = tested on: CCRF-CEM leukemia
COLO 205 colon = tested on: COLO 205 colon
DU-145 prostate = tested on: DU-145 prostate
EKVX NSCLC = tested on: EKVX NSCLC
HCC-2998 colon = tested on: HCC-2998 colon
HCT-116 colon = tested on: HCT-116 colon
HCT-15 colon = tested on: HCT-15 colon
HL-60(TB) leukemia = tested on: HL-60(TB) leukemia
HOP-62 NSCLC = tested on: HOP-62 NSCLC
HOP-92 NSCLC = tested on: HOP-92 NSCLC
HS 578T breast = tested on: HS 578T breast
HT29 colon = tested on: HT29 colon
IGROV1 ovarian = tested on: IGROV1 ovarian
K-562 leukemia = tested on: K-562 leukemia
KM12 colon = tested on: KM12 colon
LOX IMVI melanoma = tested on: LOX IMVI melanoma
M14 melanoma = tested on: M14 melanoma
MALME-3M melanoma = tested on: MALME-3M melanoma
MCF7 breast = tested on: MCF7 breast
MDA-MB-231 breast = tested on: MDA-MB-231 breast
MDA-MB-435 = tested on: MDA-MB-435
MOLT-4 leukemia = tested on: MOLT-4 leukemia
NCI-H226 lung = tested on: NCI-H226 lung
NCI-H23 lung = tested on: NCI-H23 lung
NCI-H460 lung = tested on: NCI-H460 lung
NCI-H522 lung = tested on: NCI-H522 lung
NCI/ADR-RES ovarian = tested on: NCI/ADR-RES ovarian
OVCAR-3 ovarian = tested on: OVCAR-3 ovarian
OVCAR-4 ovarian = tested on: OVCAR-4 ovarian
OVCAR-5 ovarian = tested on: OVCAR-5 ovarian
OVCAR-8 ovarian = tested on: OVCAR-8 ovarian
PC-3 prostate = tested on: PC-3 prostate
RPMI-8226 leukemia = tested on: RPMI-8226 leukemia
SF-268 CNS = tested on: SF-268 CNS
SF-295 CNS = tested on: SF-295 CNS
SF-539 CNS = tested on: SF-539 CNS
SK-MEL-2 melanoma = tested on: SK-MEL-2 melanoma
SK-MEL-5 melanoma = tested on: SK-MEL-5 melanoma
SK-OV-3 ovarian = tested on: SK-OV-3 ovarian
SN12C renal = tested on: SN12C renal
SNB-19 CNS = tested on: SNB-19 CNS
SNB-75 CNS = tested on: SNB-75 CNS
SR leukemia = tested on: SR leukemia
SW-620 colon = tested on: SW-620 colon
TK-10 renal = tested on: TK-10 renal
U251 CNS = tested on: U251 CNS
UACC-62 melanoma = tested on: UACC-62 melanoma
UO-31 renal = tested on: UO-31 renal

Work on `CC[C@]1(O)CC2CN(CCc3c([nH]c4ccccc34)[C@@](C(=O)OC)(c3cc4c(cc3OC)N(C)[C@H]3[C@@](O)(C(=O)OC)[C@H](OC(C)=O)[C@]5(CC)C=CCN6CC[C@]43[C@@H]65)C2)C1` (some centres not stated) yielded a GI50 (786-0 renal) of less than 5 nM, a TGI (786-0 renal) of 3130 nM and a GI50 (A498 renal) of 5.47 nM. For the same compound, the TGI (A498 renal) was 99.4 nM, the GI50 (A549 NSCLC) was less than 5 nM and the TGI (A549 NSCLC) was greater than 50000 nM. For the same compound, the GI50 (ACHN renal) was 76 nM, the TGI (ACHN renal) was greater than 50000 nM and the GI50 (BT-549 breast) was 5.38 nM. The TGI (BT-549 breast) was 595 nM, the GI50 (CAKI-1 renal) was 80.4 nM and the TGI (CAKI-1 renal) was 21600 nM. The GI50 (CCRF-CEM leukemia) was less than 5 nM, the TGI (CCRF-CEM leukemia) was 18500 nM and the GI50 (COLO 205 colon) was less than 5 nM. The TGI (COLO 205 colon) was 5.11 nM, the GI50 (DU-145 prostate) was less than 5 nM and the TGI (DU-145 prostate) was 28.2 nM. For the same compound, the GI50 (EKVX NSCLC) was 9.56 nM, the TGI (EKVX NSCLC) was greater than 50000 nM and the GI50 (HCC-2998 colon) was less than 5 nM. It also gave a TGI (HCC-2998 colon) of 19.5 nM, a GI50 (HCT-116 colon) of less than 5 nM and a TGI (HCT-116 colon) of 269 nM. It also gave a GI50 (HCT-15 colon) of 58.8 nM, a TGI (HCT-15 colon) greater than 21300 nM and a GI50 (HL-60(TB) leukemia) of less than 5 nM. The TGI (HL-60(TB) leukemia) was less than 5 nM, the GI50 (HOP-62 NSCLC) was less than 5 nM and the TGI (HOP-62 NSCLC) was 9890 nM. The GI50 (HOP-92 NSCLC) was less than 5 nM, the TGI (HOP-92 NSCLC) was 119 nM and the GI50 (HS 578T breast) was less than 5 nM. The TGI (HS 578T breast) was 10200 nM, the GI50 (HT29 colon) was less than 5 nM and the TGI (HT29 colon) was 5180 nM. The GI50 (IGROV1 ovarian) was 5.17 nM, the TGI (IGROV1 ovarian) was greater than 30000 nM and the GI50 (K-562 leukemia) was less than 5 nM. The TGI (K-562 leukemia) was 2260 nM, the GI50 (KM12 colon) was less than 5 nM and the TGI (KM12 colon) was 141 nM. The GI50 (LOX IMVI melanoma) was less than 5 nM, the TGI (LOX IMVI melanoma) was 8010 nM and the GI50 (M14 melanoma) was less than 5 nM. It also gave a TGI (M14 melanoma) of 41.7 nM, a GI50 (MALME-3M melanoma) of less than 5 nM and a TGI (MALME-3M melanoma) of 11800 nM. For the same compound, the GI50 (MCF7 breast) was less than 5 nM, the TGI (MCF7 breast) was 6070 nM and the GI50 (MDA-MB-231 breast) was less than 5 nM. For the same compound, the TGI (MDA-MB-231 breast) was 417 nM, the GI50 (MDA-MB-435) was less than 5 nM and the TGI (MDA-MB-435) was less than 5 nM. For the same compound, the GI50 (MOLT-4 leukemia) was less than 5 nM, the TGI (MOLT-4 leukemia) was 721 nM and the GI50 (NCI-H226 lung) was less than 5 nM. It also gave a TGI (NCI-H226 lung) of 148 nM, a GI50 (NCI-H23 lung) of less than 5 nM and a TGI (NCI-H23 lung) of 26700 nM. For the same compound, the GI50 (NCI-H460 lung) was less than 5 nM, the TGI (NCI-H460 lung) was 5800 nM and the GI50 (NCI-H522 lung) was less than 5 nM. The TGI (NCI-H522 lung) was 5.36 nM, the GI50 (NCI/ADR-RES ovarian) was 91.2 nM and the TGI (NCI/ADR-RES ovarian) was 1060 nM. For the same compound, the GI50 (OVCAR-3 ovarian) was less than 5 nM, the TGI (OVCAR-3 ovarian) was less than 5 nM and the GI50 (OVCAR-4 ovarian) was 30.3 nM. For the same compound, the TGI (OVCAR-4 ovarian) was greater than 50000 nM, the GI50 (OVCAR-5 ovarian) was 10 nM and the TGI (OVCAR-5 ovarian) was greater than 47200 nM. The GI50 (OVCAR-8 ovarian) was less than 5 nM, the TGI (OVCAR-8 ovarian) was greater than 34600 nM and the GI50 (PC-3 prostate) was less than 5 nM. It also gave a TGI (PC-3 prostate) of 12300 nM, a GI50 (RPMI-8226 leukemia) of less than 5 nM and a TGI (RPMI-8226 leukemia) of 8480 nM. It also gave a GI50 (SF-268 CNS) of less than 5 nM, a TGI (SF-268 CNS) of 8080 nM and a GI50 (SF-295 CNS) of less than 5 nM. The TGI (SF-295 CNS) was 6030 nM, the GI50 (SF-539 CNS) was less than 5 nM and the TGI (SF-539 CNS) was 293 nM. For the same compound, the GI50 (SK-MEL-2 melanoma) was less than 5 nM, the TGI (SK-MEL-2 melanoma) was 6950 nM and the GI50 (SK-MEL-5 melanoma) was less than 5 nM. For the same compound, the TGI (SK-MEL-5 melanoma) was 60.7 nM, the GI50 (SK-OV-3 ovarian) was less than 5 nM and the TGI (SK-OV-3 ovarian) was 9.77 nM. The GI50 (SN12C renal) was less than 5 nM, the TGI (SN12C renal) was greater than 37300 nM and the GI50 (SNB-19 CNS) was less than 5 nM. It also gave a TGI (SNB-19 CNS) of 15600 nM, a GI50 (SNB-75 CNS) of less than 5 nM and a TGI (SNB-75 CNS) of 5050 nM. It also gave a GI50 (SR leukemia) of less than 5 nM, a GI50 (SW-620 colon) of less than 5 nM and a TGI (SW-620 colon) of 8540 nM. The GI50 (TK-10 renal) was 148 nM, the TGI (TK-10 renal) was 13900 nM and the GI50 (U251 CNS) was less than 5 nM. The TGI (U251 CNS) was 6500 nM, the GI50 (UACC-62 melanoma) was less than 5 nM and the TGI (UACC-62 melanoma) was 8910 nM. The GI50 (UO-31 renal) was 511 nM and the TGI (UO-31 renal) was 15900 nM.
